Source: US20260072027A1, “Peptides And Method” (Queen Mary University of London, priority 2022, published 2026)
“Also recorded” adds a separate entry of the source. Where no end group is shown, it is not given here.

What was measured:
[1] = test system: serum IgG autoantibodies; assay: ELISA for autoantibody detection: serum antibody binding to native and oxPTM insulin peptides; design: species or system human
How it was run: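 Plates coated overnight at 4 °C with native or HOCl/•OH-oxidised insulin peptides (10 μg/ml, carbonate buffer pH 9.6), blocked with 5% BSA, incubated 2 h with sera at 1:200, then probed with anti-human IgG-HRP and developed with TMB, read at 450 nm. Positivity cut-off: healthy-control mean O.D. plus 3×SEM.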

[2] = test system: CD4+ and CD8+ T-cells and IgG autoantibodies; assay: Overlap of CD4+, CD8+ and IgG antibody responses (Venn analysis); assay type: cell-based, human; details: type 1 diabetes; for patients with overlapping (concordant) CD4+ and CD8+ responses to the peptide: Study cohort 2, SI >1
From the text: FIG. 13. Venn diagrams of CD4^+, CD8^+ and antibody response to oxPTM-INSPs. Panels a, b, and c show the overlap between IgG autoantibody and T-cell (CD4^+ and CD8^+) responses specific to oxPTM-INSP-3 (a), Nt-INSP-4 (b) and oxPTM-INSP-6 (c). Panels d, e, and f display the overlap between T-cell responses to the three insulin peptides and IgG to oxPTM-INS modified by hydroxyl radical (^●OH-INS). […] There is concordance between reactivity to oxPTM-INS and CD4^+ and CD8^+ reactivity for all three tested peptides (7/17, 8/18 and 8/18 for oxPTM-INSP-3, Nt-INSP-4 and oxPTM-INSP-6, respectively). The stimulatory index >1 was used for definition of positive T-cell response.
Correlation between T-cell stimulation and antibody response. Subjects evaluated for T-cell stimulation were also tested for antibody reactivity to either oxPTM-INSPs or oxidised intact insulin (oxPTM-INS) to assess correlations between humoral and cellular responses (FIG. 11-e-f). In study cohort 2, antibody reactivity to oxPTM-INSP-6 was the highest as observed in the study cohort 1, with 11/18 (61.1%) binding to at least one oxPTM-INSP-6 derivatives (p<0.001 oxPTM-INSP-6 vs. Nt-INSP-6). Detailed analysis of autoantibody response in this cohort is described in the ESM (ESM results Antibody binding to oxPTM-INSPs in Study cohort 2).
We then analysed the extent of correlation between CD4^+, CD8^+ and IgG antibody responses. […] The CD4^+ T cell response to Nt-INSP-4 frequently overlapped with CD8^+ (13/18 [72.2%]), and to a lesser extent to antibodies (7/18 [38.8%]). […] CD4^+ response to oxPTM-INSP-6 was linked to both CD8^+ and/or antibodies: […] patients had concordant CD4^+ and CD8^+ responses, while 9/18 (50%) patients had concordant CD4^+ and antibody responses. […] CD4^+ T-cell stimulation to Nt-INSP-4, oxPTM-INSP-6 and oxPTM-INSP-3 was associated with antibody reactivity to oxPTM-INS in 8/18 (44.4%), 8/18 (44.4%) and 7/18 (38.9%) type 1 diabetes patients.

[3] = Study cohort 1, in house modifications

% binders, Healthy controls [1, 3]	Mean ± SEM (absorbance, OD), Healthy controls [1, 3]	% binders, Type 1 diabetes ([1]; Study cohort 1, in house modifications, cut-off = mean of healthy controls to Nt-INSP plus 3 SEM)	Mean ± SEM (absorbance, OD), Type 1 diabetes ([1]; Study cohort 1 sera, in house modifications)	type 1 diabetes binders (IgG autoantibody reactivity) ([1]; Study cohort 2, N = 18)	Substance	concordance between reactivity to oxPTM-INS and CD4+ and CD8+ reactivity (patients/patients) ([2]; Study cohort 2)	patients with CD4+ T-cell stimulation associated with antibody reactivity to oxPTM-INS ([2]; Study cohort 2)	patients with CD4+, CD8+ T-cells to the peptide and autoantibodies to oxPTM-INS simultaneously ([2]; Study cohort 2)	patients with concordant CD4+ and antibody responses to the peptide ([2]; Study cohort 2)	patients with concordant CD4+, CD8+ and IgG antibody response to the peptide ([2]; Study cohort 2)	patients with overlapping (concordant) CD4+ and CD8+ responses to the peptide [2]	Antibody reactivity of serum samples (in words) ([1]; ELISA)
20%	0.306 ± 0.032	50%	0.469 ± 0.047	38.9%	LVEALYLVCGERGFFYTPKT [insulin B:11-30 native peptide]	8/18	44.4%	27.8%	38.8%	22.2%	72.2%	–
–	–	–	–	–	oxPTM-INSP-3: oxidised forms of insulin peptide 3 (A:12-21), in house oxidised or in silico derivatives (SLYQLENYCN; not fully specified (N-terminus); also: oxidised forms, in house oxidised or in silico derivatives, modified residues not defined)	7/17	38.9%	22.2%	–	5.5%	50.0%	High background binding in healthy controls; also recorded: high background binding of healthy controls
